This passage reports Kd results from patent US12454521B2, “Targeted protein degradation” (C4 Therapeutics, Inc., priority 2018, dated 2025).

Where a name gives a salt, the structure may show the parent alone. A value given as a limit tells only on which side of the number the result lay.

CRBN-DDB1, sequence (Q96SW2 whole entry): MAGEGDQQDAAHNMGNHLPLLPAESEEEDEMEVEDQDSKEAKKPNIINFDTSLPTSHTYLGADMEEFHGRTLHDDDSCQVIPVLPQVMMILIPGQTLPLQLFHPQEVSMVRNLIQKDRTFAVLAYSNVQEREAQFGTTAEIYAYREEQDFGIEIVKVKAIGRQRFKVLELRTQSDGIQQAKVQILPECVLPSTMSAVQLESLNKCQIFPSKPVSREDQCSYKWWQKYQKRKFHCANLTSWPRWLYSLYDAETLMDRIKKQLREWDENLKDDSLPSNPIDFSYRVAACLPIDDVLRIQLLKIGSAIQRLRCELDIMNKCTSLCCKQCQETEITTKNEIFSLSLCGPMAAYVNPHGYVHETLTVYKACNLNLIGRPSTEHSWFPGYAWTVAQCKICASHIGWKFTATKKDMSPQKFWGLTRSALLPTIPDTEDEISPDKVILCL
CRBN-DDB1, sequence (Q16531 whole entry partner): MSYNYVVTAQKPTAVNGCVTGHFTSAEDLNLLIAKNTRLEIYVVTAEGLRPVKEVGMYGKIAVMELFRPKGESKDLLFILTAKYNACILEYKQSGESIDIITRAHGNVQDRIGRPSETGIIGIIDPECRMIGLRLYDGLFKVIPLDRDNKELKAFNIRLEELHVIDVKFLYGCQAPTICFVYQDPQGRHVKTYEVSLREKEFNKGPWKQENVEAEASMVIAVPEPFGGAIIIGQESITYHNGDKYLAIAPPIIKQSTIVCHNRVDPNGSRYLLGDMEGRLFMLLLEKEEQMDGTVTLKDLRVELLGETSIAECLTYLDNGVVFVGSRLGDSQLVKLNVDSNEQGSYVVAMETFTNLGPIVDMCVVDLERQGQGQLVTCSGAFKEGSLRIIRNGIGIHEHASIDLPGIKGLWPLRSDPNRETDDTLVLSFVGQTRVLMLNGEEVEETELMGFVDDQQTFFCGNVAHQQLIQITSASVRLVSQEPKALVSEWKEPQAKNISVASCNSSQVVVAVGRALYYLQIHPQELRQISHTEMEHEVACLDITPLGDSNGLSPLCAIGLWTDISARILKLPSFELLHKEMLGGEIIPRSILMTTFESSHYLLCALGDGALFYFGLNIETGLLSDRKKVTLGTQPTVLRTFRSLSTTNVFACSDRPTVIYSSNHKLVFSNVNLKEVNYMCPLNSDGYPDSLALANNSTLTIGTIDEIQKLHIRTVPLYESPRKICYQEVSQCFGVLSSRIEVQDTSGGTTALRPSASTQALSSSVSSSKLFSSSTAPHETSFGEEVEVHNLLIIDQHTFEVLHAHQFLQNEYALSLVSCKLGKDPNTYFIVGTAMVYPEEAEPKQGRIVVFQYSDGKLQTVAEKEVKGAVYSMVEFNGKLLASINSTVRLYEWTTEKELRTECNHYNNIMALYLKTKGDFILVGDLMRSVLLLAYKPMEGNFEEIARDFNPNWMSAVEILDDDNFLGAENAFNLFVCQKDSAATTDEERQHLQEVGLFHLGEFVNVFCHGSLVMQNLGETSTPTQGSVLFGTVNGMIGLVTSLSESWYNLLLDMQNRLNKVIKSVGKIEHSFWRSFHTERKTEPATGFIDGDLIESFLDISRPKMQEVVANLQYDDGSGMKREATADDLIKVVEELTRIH

This assay has as its target CRBN-DDB1 (Homo sapiens, UniProt Q96SW2). Briefly: CRBN-DDB1 fluorescence polarization (FP) binding assay. To be noted: displacement of Thalidomide-Alexa Fluor or Pomalidomide-fluorescein probe; 400 nM CRBN-DDB1, 5 nM probe, 0.05% pluronic acid, 60 min room temperature; read-out: FP binding to CRBN_DDB1.3 0.05% PA. As for the experimental part: The measurement of the ability of representative Degrons to bind to CRBN-DDB1 was carried out using an established sensitive and quantitative in vitro fluorescence polarization (FP) based binding assay. (See, I. J. Enyedy et al, J. Med. Chem., 44: […] [2001]). Degrons were dispensed from serially diluted DMSO stock into black 384-well compatible fluorescence polarization plates using an Echo acoustic dispenser. Binding to CRBN-DDB1 was measured by displacement of either a (-)-Thalidomide- Alexa Fluor® or Pomalidomide-fluorescein conjugated probe dye. A 20 μL mixture containing 400 nM CRBN-DDB1 and 5 nM probe dye in 50 mM Hepes, pH 7.4, 200mM NaCl, 1% DMSO and 0.05% pluronic acid-127 acid was added to wells containing Degron and incubated at room temperature for 60 min. Matching control wells excluding CRBN-DDB1 were used to correct for background fluorescence. Plates were read on an Envision plate reader with appropriate FP filter sets. The corrected S (perpendicular) and P (parallel) values were used to calculate fluorescence polarization (FP) with the following equation: FP =1000*(S-G*P)/(S+G*P). The fractional amount of bound probe (FB) to CRBN-DDB1 as a function of Degron concentration was fitted according to Wang; FEBS Letters 360, (1995), 111-114 to obtain fits for parameter offsets and binding constant (KA) of Degron.
Background: Fluorescence polarisation rises when a labelled molecule tumbles more slowly, as on binding a larger partner.
For the compound `O=C1CCN(c2ccc(N3CCNCC3)nc2)C(=O)N1` [Compound 1, 1-(6-(Piperazin-1-yl)pyridin-3-yl)dihydropyrimidine-2,4(1H,3H)-dione Hydrochloride], the Kd is < 30 µM.

In the case of `Cn1nc(N2CCC(=O)NC2=O)c2ccc(Br)cc21` [Compound 2, 1-(6-Bromo-1-methyl-1H-indazol-3-yl)dihydropyrimidine-2,4(1H,3H)-dione], the Kd was < 50 µM.

For the compound `O=C1CCN(c2ccc(C3CCNCC3)c(=O)[nH]2)C(=O)N1` [Compound 5, 1-(6-Oxo-5-(piperidin-4-yl)-1,6-dihydropyridin-2-yl)dihydropyrimidine-2,4(1H,3H)-dione Hydrochloride], the Kd was < 100 µM.

`O=C(O)CCc1ccc(N2CCC(N3CCC(=O)NC3=O)CC2)cc1` [Compound 6, 3-[4-[4-(2,4-dioxohexahydropyrimidin-1-yl)-1-piperidyl]phenyl]propanoic acid]: the Kd was < 50 µM.

In the case of `O=C1CCN(c2ccc(C3CCNCC3)[nH]c2=O)C(=O)N1` [Compound 7, 1-(2-Oxo-6-(piperidin-4-yl)-1,2-dihydropyridin-3-yl)dihydropyrimidine-2,4(1H,3H)-dione], the Kd is < 30 µM.

`O=C1CCN(c2cnn(C3CCNCC3)c2)C(=O)N1` [Compound 8, 1-[1-(4-piperidyl)pyrazol-4-yl]hexahydropyrimidine-2,4-dione]: the Kd is < 100 µM.

On to `O=C1CCN(c2ccc(N3CCNCC3)cc2)C(=O)N1` [Compound 10, 1-(4-Piperazin-1-yl-phenyl)-dihydro-pyrimidine-2,4-dione hydrochloride], for which the Kd was < 100 µM.

For `O=C1CCN(c2ccc(C3CCNCC3)cc2)C(=O)N1` [Compound 11, 1-[4-(4-piperidyl)phenyl]hexahydropyrimidine-2,4-dione; hydrochloride], the Kd is < 100 µM.

On to `O=C1CCN(c2cccc(C3CCNCC3)c2)C(=O)N1` [Compound 12, 1-(3-Piperidin-4-yl-phenyl)-dihydro-pyrimidine-2,4-dione hydrochloride], for which the Kd was < 100 µM.

With `O=C1CCN(Cc2ccc(C3CCNCC3)cc2)C(=O)N1` [Compound 14, 1-(4-(Piperidin-4-yl)benzyl)dihydropyrimidine-2,4(1H,311)-dione TFA], the Kd is < 30 µM.
